In PubChem BioAssay (NCI):
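Five compound concentrations were applied to cells in 96-well plates for 48 hours; endpoints were derived by simple linear interpolation of the resulting dose-response curve. TGI is the concentration that stops growth completely.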

Legend:
Experiment in all cases: NCI-60 cell line screen, 48 h
[1] = system: BT-549 breast
[2] = system: HS 578T breast
[3] = system: OVCAR-5 ovarian
[4] = system: OVCAR-3 ovarian
[5] = system: MDA-MB-231 breast
[6] = system: SK-OV-3 ovarian
[7] = system: SW-620 colon
[8] = system: HL-60(TB) leukemia
[9] = system: HCC-2998 colon
[10] = system: NCI-H460 lung
[11] = system: A498 renal
[12] = system: T-47D breast
[13] = system: CAKI-1 renal
[14] = system: SK-MEL-2 melanoma
[15] = system: COLO 205 colon
[16] = system: HCT-116 colon
[17] = system: SNB-75 CNS
[18] = system: RPMI-8226 leukemia
[19] = system: MCF7 breast
[20] = system: LOX IMVI melanoma
[21] = system: MOLT-4 leukemia
[22] = system: M14 melanoma
[23] = system: KM12 colon
[24] = system: OVCAR-4 ovarian
[25] = system: ACHN renal
[26] = system: SF-539 CNS
[27] = system: U251 CNS
[28] = system: 786-0 renal
[29] = system: A549 NSCLC
[30] = system: PC-3 prostate
[31] = system: DU-145 prostate
[32] = system: TK-10 renal
[33] = system: UACC-62 melanoma
[34] = system: SNB-19 CNS
[35] = system: K-562 leukemia
[36] = system: UACC-257 melanoma
[37] = system: HOP-92 NSCLC
[38] = system: EKVX NSCLC
[39] = system: HCT-15 colon
[40] = system: SK-MEL-28 melanoma
[41] = system: NCI/ADR-RES ovarian
[42] = system: SN12C renal
[43] = system: MDA-N
[44] = system: SF-268 CNS
[45] = system: SR leukemia
[46] = system: OVCAR-8 ovarian
[47] = system: HOP-62 NSCLC
[48] = system: CCRF-CEM leukemia
[49] = system: SK-MEL-5 melanoma
[50] = system: IGROV1 ovarian
[51] = system: MDA-MB-435
[52] = system: SF-295 CNS
[53] = system: HT29 colon
[54] = system: UO-31 renal
[55] = system: RXF 393 renal
[56] = system: NCI-H226 lung
[57] = system: MALME-3M melanoma
[58] = system: NCI-H23 lung
[59] = system: NCI-H522 lung

Structure (SMILES): COc1cc(/C=C2\N=C(c3ccccc3)N(c3ccc(C(=O)c4ccccc4)cc3N3C(=O)/C(=C/c4ccc(O)c(OC)c4)N=C3c3ccccc3)C2=O)ccc1O
- TGI [1]: > 100 µM
- TGI [2]: 46.6 µM
- TGI [3]: 95.5 µM
- TGI [4]: 8.7 µM
- TGI [5]: 43.8 µM
- TGI [6]: 45 µM
- TGI [7]: > 100 µM
- TGI [8]: 16 µM
- TGI [9]: 9.69 µM
- TGI [10]: 20.2 µM
- TGI [11]: 36.7 µM
- TGI [12]: 27.3 µM
- TGI [13]: 71 µM
- TGI [14]: 29.9 µM
- TGI [15]: 32.3 µM
- TGI [16]: 23.2 µM
- TGI [17]: 54.3 µM
- TGI [18]: 94.3 µM
- TGI [19]: 20.2 µM
- TGI [20]: 37.1 µM
- TGI [21]: 15.3 µM
- TGI [22]: 25.1 µM
- TGI [23]: 22.4 µM
- TGI [24]: 84.4 µM
- TGI [25]: 57.2 µM
- TGI [26]: 17.2 µM
- TGI [27]: 37.5 µM
- TGI [28]: 61.2 µM
- TGI [29]: 62.7 µM
- TGI [30]: 26.7 µM
- TGI [31]: 48.6 µM
- TGI [32]: 51.9 µM
- TGI [33]: 30.8 µM
- TGI [34]: > 100 µM
- TGI [35]: 53 µM
- TGI [36]: 39.6 µM
- TGI [37]: > 100 µM
- TGI [38]: 76.4 µM
- TGI [39]: 40.3 µM
- TGI [40]: 72.6 µM
- TGI [41]: 89.5 µM
- TGI [42]: 62.7 µM
- TGI [43]: 40 µM
- TGI [44]: 74 µM
- TGI [45]: 33.9 µM
- TGI [46]: 32.5 µM
- TGI [47]: 48.9 µM
- TGI [48]: > 100 µM
- TGI [49]: 20.2 µM
- TGI [50]: 29.7 µM
- TGI [51]: 8.16 µM
- TGI [52]: 28.8 µM
- TGI [53]: 51.5 µM
- TGI [54]: 27.6 µM

Structure (SMILES): CC(=O)OCC1OC(N2C(c3ccccc3)=CC(c3ccco3)C(C#N)=C2S)C(OC(C)=O)C(OC(C)=O)C1OC(C)=O (centres undefined)
- TGI [1]: > 100 µM
- TGI [2]: 7.61 µM
- TGI [55]: 15.7 µM
- TGI [3]: 22 µM
- TGI [4]: 18.3 µM
- TGI [56]: 24.3 µM
- TGI [5]: 8.65 µM
- TGI [6]: 59 µM
- TGI [7]: 4.2 µM
- TGI [9]: 48.9 µM
- TGI [10]: > 62.2 µM
- TGI [11]: > 63.3 µM
- TGI [12]: > 67.9 µM
- TGI [13]: 34.1 µM
- TGI [14]: 65.4 µM
- TGI [15]: 28.5 µM
- TGI [16]: 33.2 µM
- TGI [17]: 8.9 µM
- TGI [18]: > 45 µM
- TGI [19]: > 82.4 µM
- TGI [57]: 13.6 µM
- TGI [20]: > 46.4 µM
- TGI [21]: > 75.4 µM
- TGI [22]: 16.9 µM
- TGI [23]: > 100 µM
- TGI [24]: 9.16 µM
- TGI [25]: 24.8 µM
- TGI [26]: 5.35 µM
- TGI [27]: 8.6 µM
- TGI [28]: 5.93 µM
- TGI [29]: > 65.6 µM
- TGI [30]: > 38.6 µM
- TGI [58]: 23.7 µM
- TGI [31]: > 88.2 µM
- TGI [59]: > 39.8 µM
- TGI [32]: 37.5 µM
- TGI [33]: 65 µM
- TGI [34]: 38.7 µM
- TGI [35]: > 100 µM
- TGI [36]: > 100 µM
- TGI [37]: 26.9 µM
- TGI [38]: > 52.1 µM
- TGI [39]: > 100 µM
- TGI [40]: > 75.5 µM
- TGI [41]: 39.9 µM
- TGI [42]: 26.2 µM
- TGI [43]: > 53.9 µM
- TGI [44]: > 57.4 µM
- TGI [45]: > 37.5 µM
- TGI [46]: 12.1 µM
- TGI [47]: 19.5 µM
- TGI [48]: > 100 µM
- TGI [49]: 17.9 µM
- TGI [50]: > 67.1 µM
- TGI [51]: > 70.5 µM
- TGI [52]: > 70.3 µM
- TGI [53]: > 100 µM
- TGI [54]: 29.5 µM

Structure (SMILES): Cc1cc(C)nc(NS(=O)(=O)c2ccc(Nc3c4ccccc4nc4c(C(=O)NC(CO)(CO)CO)cccc34)cc2)n1
- TGI [1]: 44.2 µM
- TGI [2]: > 100 µM
- TGI [3]: 88.4 µM
- TGI [4]: > 100 µM
- TGI [5]: > 100 µM
- TGI [6]: > 100 µM
- TGI [7]: > 100 µM
- TGI [8]: 97.9 µM
- TGI [9]: 36.1 µM
- TGI [10]: 35.3 µM
- TGI [11]: > 100 µM
- TGI [12]: > 100 µM
- TGI [13]: > 100 µM
- TGI [14]: 44.4 µM
- TGI [15]: 42.6 µM
- TGI [17]: 55.2 µM
- TGI [18]: 91.8 µM
- TGI [19]: > 100 µM
- TGI [20]: 42.2 µM
- TGI [21]: > 100 µM
- TGI [22]: > 100 µM
- TGI [23]: 36.4 µM
- TGI [24]: > 100 µM
- TGI [25]: > 100 µM
- TGI [27]: 83.5 µM
- TGI [28]: > 100 µM
- TGI [29]: 73.2 µM
- TGI [30]: > 100 µM
- TGI [58]: > 100 µM
- TGI [31]: > 100 µM
- TGI [59]: 31.7 µM
- TGI [32]: 68.9 µM
- TGI [33]: > 100 µM
- TGI [34]: > 100 µM
- TGI [35]: > 100 µM
- TGI [36]: > 100 µM
- TGI [37]: > 100 µM
- TGI [38]: > 100 µM
- TGI [39]: > 100 µM
- TGI [40]: 62.5 µM
- TGI [41]: > 100 µM
- TGI [42]: > 100 µM
- TGI [43]: 68.8 µM
- TGI [44]: > 100 µM
- TGI [45]: 67.2 µM
- TGI [46]: > 100 µM
- TGI [47]: > 100 µM
- TGI [48]: 58.9 µM
- TGI [49]: 44.5 µM
- TGI [50]: > 100 µM
- TGI [51]: 51.6 µM
- TGI [52]: > 100 µM
- TGI [53]: 70.8 µM
- TGI [54]: > 100 µM

Structure (SMILES): CCCC1CC(=O)NC(=O)C1C(=O)OC(C)(C)C (centres undefined)
- TGI [1]: > 100 µM
- TGI [2]: > 100 µM
- TGI [55]: > 100 µM
- TGI [3]: > 100 µM
- TGI [4]: > 100 µM
- TGI [56]: > 100 µM
- TGI [5]: > 100 µM
- TGI [7]: > 100 µM
- TGI [8]: > 100 µM
- TGI [9]: > 100 µM
- TGI [10]: > 100 µM
- TGI [11]: > 100 µM
- TGI [12]: > 100 µM
- TGI [13]: > 100 µM
- TGI [14]: > 100 µM
- TGI [15]: > 100 µM
- TGI [16]: > 100 µM
- TGI [17]: > 100 µM
- TGI [18]: > 100 µM
- TGI [19]: > 100 µM
- TGI [57]: > 100 µM
- TGI [20]: > 100 µM
- TGI [21]: > 100 µM
- TGI [23]: > 100 µM
- TGI [24]: > 100 µM
- TGI [25]: > 100 µM
- TGI [27]: > 100 µM
- TGI [28]: > 100 µM
- TGI [30]: > 100 µM
- TGI [58]: > 100 µM
- TGI [31]: > 100 µM
- TGI [59]: > 100 µM
- TGI [32]: > 100 µM
- TGI [33]: > 100 µM
- TGI [34]: > 100 µM
- TGI [35]: > 100 µM
- TGI [36]: > 100 µM
- TGI [38]: > 100 µM
- TGI [39]: > 100 µM
- TGI [40]: > 100 µM
- TGI [41]: > 100 µM
- TGI [42]: > 100 µM
- TGI [43]: > 100 µM
- TGI [44]: > 100 µM
- TGI [45]: > 100 µM
- TGI [46]: > 100 µM
- TGI [47]: > 100 µM
- TGI [49]: > 100 µM
- TGI [50]: > 100 µM
- TGI [51]: > 100 µM
- TGI [52]: > 100 µM
- TGI [53]: > 100 µM
- TGI [54]: > 100 µM
